Assay results published in patent publication US11931424B2, “Combination MCL-1 inhibitors with anti-body drug conjugates” (Gilead Sciences, Inc., priority 2021, dated 2024).

System: panel of breast cancer cell lines
Assay: Compound A with targeted agents and chemotherapies, 72-hour in vitro proliferation assays
Assay type: cell-based
Settings: 72-hour proliferation
[1] = AU565 cell line, compound A × partner
[2] = BT-20 cell line, compound A × partner
[3] = BT-474 cell line, compound A × partner
[4] = BT-549 cell line, compound A × partner
[5] = CAL-51 cell line, compound A × partner
[6] = CAL-85-1 cell line, compound A × partner
[7] = CAL-120 cell line, compound A × partner
[8] = CAL-148 cell line, compound A × partner
[9] = CAMA-1 cell line, compound A × partner
[10] = DU-4475 cell line, compound A × partner
[11] = EVSA-T cell line, compound A × partner
[12] = HCC1143 cell line, compound A × partner
[13] = MCF7 cells, Compound A × partner agent
[14] = MDA-MB-175-VII cells, Compound A × partner agent
[15] = MDA-MB-231 cells, Compound A × partner agent
[16] = MDA-MB-361 cells, Compound A × partner agent
[17] = MDA-MB-436 cells, Compound A × partner agent
[18] = MDA-MB-453 cells, Compound A × partner agent
[19] = MDA-MB-468 cells, Compound A × partner agent
[20] = SK-BR-3 cells, Compound A × partner agent
[21] = SUM159PT cells, combination of compound A with the named agent
[22] = T47D cells, combination of compound A with the named agent
[23] = ZR-75-1 cells, combination of compound A with the named agent
[24] = ZR-75-30 cells, combination of compound A with the named agent

## N.N.O=C([O-])C1(C(=O)[O-])CCC1.[Pt+2] [Carboplatin]
[1]
  Best CI: 1.10
  Bliss Volume: 6.93
  HSA volume: −0.68
  Loewe Volume: −0.04
  Synergy Score: 3.68
[2]
  Best CI: 0.66
  Bliss Volume: 7.81
  HSA volume: 1.55
  Loewe Volume: −0.31
  Synergy Score: 5.46
[3]
  Best CI: 1.30
  Bliss Volume: −3.87
  HSA volume: −5.02
  Loewe Volume: −4.61
  Synergy Score: 2.18
[4]
  Best CI: 1.30
  Bliss Volume: 6.55
  HSA volume: 4.24
  Loewe Volume: 4.88
  Synergy Score: 5.26
[5]
  Best CI: 0.89
  Bliss Volume: 2.81
  HSA volume: 2.17
  Loewe Volume: 2.97
  Synergy Score: 5.53
[6]
  Best CI: 1.11
  Bliss Volume: 4.84
  HSA volume: 3.68
  Loewe Volume: 3.42
  Synergy Score: 4.18
[7]
  Best CI: 0.58
  Bliss Volume: −0.19
  HSA volume: −1.52
  Loewe Volume: −0.25
  Synergy Score: 0.49
[8]
  Best CI: 0.27
  Bliss Volume: 11.40
  HSA volume: 12.06
  Loewe Volume: 11.89
  Synergy Score: 24.09
[9]
  Best CI: 0.46
  Bliss Volume: 9.50
  HSA volume: 6.02
  Loewe Volume: 6.21
  Synergy Score: 12.48
[10]
  Best CI: 0.76
  Bliss Volume: 10.04
  HSA volume: 7.26
  Loewe Volume: 6.59
  Synergy Score: 8.88
[11]
  Best CI: 0.84
  Bliss Volume: 9.55
  HSA volume: −0.13
  Loewe Volume: −0.33
  Synergy Score: 4.72
HCC38, compound A × partner
  Best CI: 0.63
  Best CI Level: 130
  Bliss Volume: 5.43
  HSA volume: 5.68
  Loewe Volume: 3.81
  Synergy Score: 9.07
HCC70, compound A × partner
  Best CI: 0.31
  Best CI Level: 60
  Bliss Volume: 12.67
  HSA volume: 3.84
  Loewe Volume: 3.02
  Synergy Score: 7.72
[12]
  Best CI: 0.82
  Bliss Volume: −4.47
  HSA volume: −2.24
  Loewe Volume: −2.60
  Synergy Score: 3.59
HCC1569, compound A × partner
  Best CI: 0.43
  Best CI Level: 30
  Bliss Volume: 4.84
  HSA volume: 2.05
  Loewe Volume: 2.91
  Synergy Score: 2.85
HCC1806, compound A × partner
  Best CI: 0.33
  Best CI Level: 80
  Bliss Volume: 11.43
  HSA volume: 4.44
  Loewe Volume: 9.76
  Synergy Score: 9.06
HCC1937, compound A × partner
  Best CI: 0.44
  Best CI Level: 25
  Bliss Volume: 5.97
  HSA volume: 3.52
  Loewe Volume: 4.56
  Synergy Score: 4.59
HCC1954, compound A × partner
  Best CI: 1.07
  Best CI Level: 125
  Bliss Volume: 2.26
  HSA volume: 2.07
  Loewe Volume: 0.71
  Synergy Score: 5.12
HCC2218, compound A × partner
  Best CI: 0.70
  Best CI Level: 45
  Bliss Volume: 2.59
  HSA volume: 0.49
  Loewe Volume: −1.33
  Synergy Score: 5.27
HDQ-P1, compound A × partner
  Best CI: 0.92
  Best CI Level: 35
  Bliss Volume: −3.17
  HSA volume: −3.06
  Loewe Volume: −3.13
  Synergy Score: 0.54
HMC-1-8, compound A × partner
  Best CI: 0.72
  Best CI Level: 155
  Bliss Volume: 9.25
  HSA volume: 4.09
  Loewe Volume: 3.94
  Synergy Score: 9.60
JIMT-1, compound A × partner
  Best CI: 0.96
  Best CI Level: 25
  Bliss Volume: 3.78
  HSA volume: −0.17
  Loewe Volume: 1.92
  Synergy Score: 0.69
KPL-1, compound A × partner
  Best CI: 0.89
  Best CI Level: 105
  Bliss Volume: 0.04
  HSA volume: 1.33
  Loewe Volume: 0.65
  Synergy Score: 2.66
[13]
  Best CI: 0.40
  Best CI Level: 75
  Bliss Volume: 8.40
  HSA volume: 5.66
  Loewe Volume: 4.40
  Synergy Score: 6.10
[14]
  Best CI: 0.60
  Best CI Level: 80
  Bliss Volume: 15.45
  HSA volume: 7.97
  Loewe Volume: 12.14
  Synergy Score: 9.73
[15]
  Best CI: 0.91
  Best CI Level: 50
  Bliss Volume: 3.11
  HSA volume: 2.11
  Loewe Volume: 3.30
  Synergy Score: 1.89
[16]
  Best CI: 0.82
  Best CI Level: 135
  Bliss Volume: 2.52
  HSA volume: 1.01
  Loewe Volume: 1.40
  Synergy Score: 7.41
[17]
  Best CI: 1.72
  Best CI Level: 135
  Bliss Volume: 1.31
  HSA volume: 1.06
  Loewe Volume: 1.16
  Synergy Score: 2.53
[18]
  Best CI: 1.12
  Best CI Level: 150
  Bliss Volume: 9.75
  HSA volume: 5.44
  Loewe Volume: 6.37
  Synergy Score: 10.04
[19]
  Best CI: 0.56
  Best CI Level: 135
  Bliss Volume: 19.05
  HSA volume: 4.48
  Loewe Volume: 3.36
  Synergy Score: 7.68
[20]
  Best CI: 0.35
  Best CI Level: 160
  Bliss Volume: 11.97
  HSA volume: 1.74
  Loewe Volume: 1.40
  Synergy Score: 6.87
[21]
  Best CI: 0.52
  Best CI Level: 20
  Bliss Volume: 1.33
  HSA volume: −1.99
  Loewe Volume: −0.01
  Synergy Score: 0.81
[22]
  Best CI: 1.01
  Best CI Level: 30
  Bliss Volume: 0.78
  HSA volume: −1.67
  Loewe Volume: 0.98
  Synergy Score: 1.42
[23]
  Best CI: 0.88
  Best CI Level: 100
  Bliss Volume: 4.99
  HSA volume: 6.14
  Loewe Volume: 6.57
  Synergy Score: 7.91
[24]
  Best CI: 0.30
  Best CI Level: 100
  Bliss Volume: 8.34
  HSA volume: 6.81
  Loewe Volume: 5.78
  Synergy Score: 12.96
